Values quoted from earlier work in patent US20160143911A1, “STABLE AND WATER SOLUBLE PHARMACEUTICAL COMPOSITIONS COMPRISING PEMETREXED” (SYNTHON B.V., priority 2013, published 2016).

Conditions: free diacid form

Solubility in water: only sparingly soluble in water
SMILES: Nc1nc2[nH]cc(CCc3ccc(C(=O)N[C@@H](CCC(=O)O)C(=O)O)cc3)c2c(=O)[nH]1 [pemetrexed diacid, N-[4-[2-(2-amino-4,7-dihydro-4-oxo-1H-pyrrolo [2,3-d]pyrimidin-5-yl)ethyl]benzoyl]-L-glutamic acid]
